Here are results for two compounds from patent US20100240645A1, “COMBINATION OF CHECKPONIT KINASE (CHK) AND TELANGIECTASIA MUTATED (ATM) INHIBITORS FOR THE TREATMENT OF CANCER” (ASTRAZENECA AB, priority 2007, published 2010).

pIC50: −log10 of the molar value. Like-named read-outs stand apart in the source and are kept apart here.

The test system of assay [1] is SW620 cell line. As to the kind of experiment: MTS colorimetric cell viability assay, CHK-ATM combination, SW620. The conditions noted are these: for pIC50: Homo sapiens.
The test system of assay [2] is NCI-H460dnp53 cell line. Briefly: MTS colorimetric cell viability assay, CHK-ATM combination, NCI-H460dnp53.

Consider `CC1CN(CC(=O)Nc2ccc3c(c2)Cc2cccc(-c4cc(=O)cc(N5CCOCC5)o4)c2S3)CC(C)O1` (stereo not shown) [ATM inhibitor, 2-[(2,6)-2,6-dimethylmorpholin-4-yl]-N-[5-(6-morpholin-4-yl-4-oxo-4H-pyran-2-yl)-9H-thioxanthen-2-yl]acetamide], for which the pIC50 in assay [1] (SW-620, 96 h, read-out: IC50 of ATM inhibitor, ATM inhibitor + CHK inhibitor Simultaneous) was 5.72; in assay [1] (SW-620, read-out: IC50 of ATM inhibitor alone) it was 5.15; in assay [1] (SW-620, read-out: IC50 of ATM inhibitor, ATM inhibitor followed by CHK inhibitor), 5.47; in assay [1] (SW-620, read-out: IC50 of ATM inhibitor, CHK inhibitor followed by ATM inhibitor) it was 5.22; in assay [2] (96 h, read-out: IC50 of ATM inhibitor, ATM inhibitor + CHK inhibitor Simultaneous), 5.77; in assay [2] (read-out: IC50 of ATM inhibitor alone), under 4.52. The pIC50 in assay [2] (read-out: IC50 of ATM inhibitor, ATM inhibitor followed by CHK inhibitor) was 5.42; in assay [2] (read-out: IC50 of ATM inhibitor, CHK inhibitor followed by ATM inhibitor) it was 5.36.

For the compound `NC(=O)Nc1cc(-c2cccc(F)c2)sc1C(=O)N[C@H]1CCCNC1` [CHK inhibitor, 5-(3-Fluoro-phenyl)-3-ureido-thiophene-2-carboxylic acid (S)-piperidin-3-ylamide], the “activity of CHK inhibitor as a single agent at the constant concentration used” value in assay [1] (SW620, 0.28 uM, single agent, previously determined) is on record as “no activity”; in assay [2] (NCI-H460dnp53, 0.33 uM, single agent, previously determined) it was “no activity”.
